The record followed here is ChEMBL document CHEMBL1201862, “PubChem BioAssay data set” (2004).

Among the test systems are A549; HCT-15; HL-60; IGROV-1; KM12; Malme-3M; OVCAR-5; SF-268; SK-MEL-28; SK-MEL-5; SN12C; SR; TK-10; U-251; NCI-H226; A498.
Experiment in all cases: NCI-60 cell line screen, 48 h

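Exposure lasted 48 hours, with cells grown in 96-well plates and compounds tested at five concentrations. GI50 is the concentration that inhibits growth by half.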 Activity calls are given as the source filed them. Rule as the data show it: active = GI50 up to about 1.1 µM and inactive = higher. Some results are limits rather than exact numbers.

On to `CC(=O)O/N=C/c1cc2c(cc1Br)OCO2`, for which the GI50 in the assay on A549 was > 349 µM (inactive); with HCT-15, above 349 µM; in the assay with HL-60, > 349 µM (inactive); in the assay on IGROV-1, > 349 µM (inactive); in the assay with KM12, > 349 µM (inactive); in the assay on Malme-3M, > 349 µM (inactive). Further, the GI50 in the assay with OVCAR-5, in the assay on SF-268, with SK-MEL-28, with SK-MEL-5, in the assay with SN12C and with SR was > 349 µM (inactive) throughout. Further, the values for the GI50 in the assay on TK-10 and in the assay on U-251 were > 349 µM (inactive) and > 34.9 µM (inactive), respectively.

For `C=C1c2ccccc2N(S(=O)(=O)c2ccc(C)cc2)C12CCCCC2`, the GI50 in the assay on A549 is 63.4 µM (inactive); with HCT-15 it was above 100 µM; with HL-60, 19.8 µM (inactive); with IGROV-1, > 100 µM (inactive); in the assay with KM12, 38.5 µM (inactive); in the assay with Malme-3M, 34.8 µM (inactive). Further, the GI50 in the assay on NCI-H226 was 53.2 µM (inactive); in the assay on OVCAR-5 it was > 100 µM (inactive); in the assay with SF-268, 63 µM (inactive); in the assay with SK-MEL-28 it was 45.2 µM (inactive); in the assay with SK-MEL-5 it was 30.8 µM (inactive); in the assay with SN12C it was > 100 µM (inactive). The GI50 was 13.1 µM (inactive) in the assay with SR, > 100 µM (inactive) with TK-10 and 94.6 µM (inactive) with U-251.

For `COc1c2c(c3c(c1C1OC(C)[C@@H](C)O1)CC(C)(C)O3)C(=O)c1ccccc1C2=O` (stereo partly specified), the GI50 in the assay on A549 is 73.3 µM (inactive); with HCT-15, 43.1 µM; in the assay on HL-60, 13.5 µM (inactive); in the assay with IGROV-1 it was > 100 µM (inactive); in the assay on KM12, 45.7 µM (inactive); in the assay with Malme-3M it was 64.6 µM (inactive). Further, the GI50 with NCI-H226 was > 100 µM (inactive); with OVCAR-5, > 100 µM (inactive); in the assay with SF-268, 54.2 µM (inactive); in the assay on SK-MEL-28, 55.3 µM (inactive); in the assay with SK-MEL-5, 56.8 µM (inactive); with SN12C, 35.6 µM (inactive). The GI50 in the assay on SR was 22.5 µM (inactive); in the assay on TK-10 it was > 100 µM (inactive); with U-251, 36.6 µM (inactive).

Take `Cc1cc(Cl)ccc1NC(=O)C1C(=O)C(=O)N(c2ccc(Cl)cc2C)C1=O` (stereo unspecified): the GI50 in the assay with A498 is > 100 µM (inactive); in the assay with A549 it was > 100 µM (inactive); in the assay with HCT-15, 57.5 µM; in the assay on HL-60, > 100 µM (inactive); in the assay on IGROV-1, > 100 µM (inactive); with Malme-3M, > 100 µM (inactive). The GI50 in the assay on NCI-H226 is 49.8 µM (inactive); in the assay with OVCAR-5 it was 48.3 µM (inactive); in the assay with SF-268 it was 53 µM (inactive); in the assay with SK-MEL-28, > 100 µM (inactive); in the assay with SK-MEL-5, > 100 µM (inactive); in the assay on SN12C, > 100 µM (inactive). Further, the GI50 was > 100 µM (inactive) with TK-10 and 57.3 µM (inactive) in the assay on U-251.

Regarding `CCCCCCCC(=O)OCC(COC(=O)C(C)(C)C)OC(=O)Cc1ccccc1` (stereo unspecified), the GI50 was > 100 µM (inactive) with A498; > 100 µM (inactive) in the assay with A549; above 100 µM with HCT-15; > 100 µM (inactive) in the assay on HL-60; > 100 µM (inactive) with IGROV-1; > 100 µM (inactive) in the assay on Malme-3M. Also, the GI50 in the assay on NCI-H226, in the assay with OVCAR-5, in the assay on SF-268, with SK-MEL-28, in the assay on SK-MEL-5 and in the assay with SN12C was > 100 µM (inactive) each time. The GI50 in the assay on TK-10 and in the assay with U-251 was > 100 µM (inactive) throughout.

`CC(=O)O[C@H]1CC[C@@]2(C)C(=CC[C@@H]3C2CC[C@]2(C)Nc4c(cnn4-c4ccccc4)CC32)C1` (stereo partly specified): the GI50 with A498 was 10.6 µM (inactive); with A549 it was 23.7 µM (inactive); in the assay on HCT-15, 10.4 µM; in the assay on HL-60, 2.77 µM (inactive); in the assay with IGROV-1, 20.6 µM (inactive); in the assay on KM12 it was 11.9 µM (inactive). Further, the GI50 in the assay with Malme-3M is 29.9 µM (inactive); in the assay on NCI-H226, > 100 µM (inactive); in the assay on OVCAR-5, 19.2 µM (inactive); with SK-MEL-28 it was 10.4 µM (inactive); with SK-MEL-5, 28.1 µM (inactive); with TK-10, 56.5 µM (inactive). The GI50 with U-251 is 4.98 µM (inactive).

As to `O=C(O)CCSCCCN1C(=O)c2ccccc2C1=O`, the GI50 with A549 was > 100 µM (inactive); with HCT-15 it was above 100 µM; in the assay with IGROV-1, > 100 µM (inactive); in the assay with KM12, > 100 µM (inactive); with Malme-3M, > 100 µM (inactive); in the assay on NCI-H226 it was > 100 µM (inactive). Moreover, the GI50 in the assay on OVCAR-5, with SF-268, in the assay on SK-MEL-28, with SK-MEL-5, in the assay on SN12C and in the assay with SR was > 100 µM (inactive) each time. Further, the GI50 in the assay on TK-10 and with U-251 was > 100 µM (inactive) throughout.

Turning to `COc1cc(C2C(C(=O)O)=C(COC(C)=O)Oc3cc4c(cc32)OCO4)cc(OC)c1OC(C)=O` (stereo unspecified), the GI50 was > 100 µM (inactive) in the assay with A549; above 100 µM with HCT-15; > 100 µM (inactive) in the assay with HL-60; > 100 µM (inactive) in the assay on IGROV-1; > 100 µM (inactive) in the assay on Malme-3M; > 100 µM (inactive) with SK-MEL-28. Moreover, the GI50 in the assay on SK-MEL-5, with SN12C, with TK-10 and in the assay with U-251 was > 100 µM (inactive) in each case.

In the case of `COc1cc2c3c(c1OC)-c1ccccc1C(C(O)c1ccccc1)C3N(C)CC2` (stereo unspecified), the GI50 in the assay on A549 was 39.5 µM (inactive); with HCT-15 it was 25.4 µM; with HL-60 it was 20 µM (inactive); with IGROV-1 it was 38.8 µM (inactive); with KM12, 25.8 µM (inactive); with Malme-3M, 19.6 µM (inactive). Moreover, the GI50 in the assay with NCI-H226 was 31 µM (inactive); in the assay on OVCAR-5, > 100 µM (inactive); with SF-268, 31.7 µM (inactive); in the assay on SK-MEL-28 it was 16.4 µM (inactive); in the assay with SK-MEL-5, 14.4 µM (inactive); in the assay on SN12C, 32.6 µM (inactive). For the same compound, the GI50 is 18 µM (inactive) with SR, 33.9 µM (inactive) in the assay on TK-10 and 30 µM (inactive) with U-251.

Consider `O=C(/C=C\c1cccc2ccccc12)c1cccs1`, for which the GI50 in the assay with A498 is 15.6 µM (inactive); with A549, 16.8 µM (inactive); in the assay with HCT-15, 3.18 µM; in the assay on HL-60 it was 3.25 µM (inactive); in the assay with IGROV-1 it was 10.3 µM (inactive); with KM12, 4.88 µM (inactive). The GI50 was 12.5 µM (inactive) in the assay with Malme-3M; 18.7 µM (inactive) with OVCAR-5; 11 µM (inactive) in the assay on SF-268; 14.3 µM (inactive) in the assay on SK-MEL-28; 13.3 µM (inactive) with SK-MEL-5; 16.8 µM (inactive) in the assay on SN12C. Further, the GI50 is 19 µM (inactive) in the assay on TK-10 and 4.43 µM (inactive) with U-251.

Consider `COc1cc(C)c(C(=O)/C=C/c2cc(OC)c(O)c(OC)c2)cc1O`, for which the GI50 was 31.6 µM (inactive) with A498; 29.3 µM (inactive) in the assay on A549; 22.1 µM (inactive) in the assay with HL-60; 28.9 µM (inactive) with IGROV-1; 15.9 µM (inactive) in the assay with KM12; 20.1 µM (inactive) in the assay on Malme-3M. In addition, the GI50 is 27.6 µM (inactive) in the assay on OVCAR-5; 23.9 µM (inactive) with SF-268; 18.6 µM (inactive) in the assay on SK-MEL-28; 17 µM (inactive) with SK-MEL-5; 45.6 µM (inactive) in the assay with TK-10; 19.6 µM (inactive) in the assay on U-251.

For the compound `CN(C)CCc1ccc(Cl)cc1Cl`, the GI50 with A498 was > 100 µM (inactive); in the assay with A549, > 100 µM (inactive); with HCT-15, above 100 µM; in the assay on HL-60, > 100 µM (inactive); with IGROV-1 it was > 100 µM (inactive); in the assay on KM12, > 100 µM (inactive). Moreover, the GI50 with Malme-3M, in the assay with OVCAR-5, with SF-268, with SK-MEL-28, in the assay on SK-MEL-5 and with SN12C was > 100 µM (inactive) each time. Besides, the GI50 in the assay with SR, in the assay on TK-10 and in the assay with U-251 was > 100 µM (inactive) throughout.

`C=CCOC1CC(n2cnc3c(N)ncnc32)OC1CO` (stereo unspecified): the GI50 in the assay with A549 is > 100 µM (inactive); in the assay with HCT-15 it was above 100 µM; in the assay on HL-60 it was > 100 µM (inactive); in the assay with IGROV-1, > 100 µM (inactive); in the assay on KM12 it was > 100 µM (inactive); with Malme-3M it was > 100 µM (inactive). Further, the GI50 in the assay on NCI-H226, in the assay with OVCAR-5, in the assay on SF-268, with SK-MEL-28, in the assay on SK-MEL-5 and in the assay with SR was > 100 µM (inactive) in each case. Also, the GI50 in the assay on TK-10 and in the assay on U-251 was > 100 µM (inactive) throughout.

On to `O=C(O)COc1ccc(O)c2c1C(=O)CCCC2=O`, for which the GI50 in the assay on A498 is > 100 µM (inactive); in the assay with A549, > 100 µM (inactive); in the assay on HCT-15, above 100 µM; in the assay on HL-60, > 100 µM (inactive); with IGROV-1, > 100 µM (inactive); with KM12, > 100 µM (inactive). Further, the GI50 with Malme-3M, in the assay on OVCAR-5, with SF-268, in the assay on SK-MEL-28, in the assay on SK-MEL-5 and with SN12C was > 100 µM (inactive) each time. Also, the GI50 in the assay on TK-10 and in the assay on U-251 was > 100 µM (inactive) in each case.

For `O=C(O)c1c2c(cc3c(=O)cc(-c4ccccc4)oc13)CCCC2`, the GI50 with A498 is > 100 µM (inactive); with A549 it was > 100 µM (inactive); in the assay on HCT-15 it was above 100 µM; with IGROV-1, > 100 µM (inactive); in the assay on KM12 it was > 100 µM (inactive); with Malme-3M it was > 100 µM (inactive). Moreover, the GI50 in the assay on OVCAR-5, in the assay on SF-268, in the assay on SK-MEL-28, with SK-MEL-5, in the assay with SN12C and in the assay on TK-10 was > 100 µM (inactive) in each case. Further, the GI50 in the assay with U-251 is > 100 µM (inactive).
